From patent publication US7423159B2, “Agent for preventing or treating neuropathy” (Takeda Pharmaceutical Company Limited, priority 2002, dated 2008)

Structure (SMILES) | melting point [°C]
CCc1nccn1Cc1ccc(NC(=O)/C=C/c2cnn(C)c2-c2ccc(F)cc2)cc1 [Example 191, (2E)-N-{4-[(2-Ethyl-1H-imidazol-1-yl)methyl]phenyl}-3-[5-(4-fluorophenyl)-1-methyl-1H-pyrazol-4-yl]acrylamide] | 237 to 238
Cn1ncc(/C=C/C(=O)Nc2ccc(Cn3ccnn3)cc2)c1-c1ccc(F)cc1 [Example 194, (2E)-3-[5-(4-Fluorophenyl)-1-methyl-1H-pyrazol-4-yl]-N-[4-(1H-1,2,3-triazol-1-ylmethyl)phenyl]acrylamide] | 252 to 253
Cn1ncc(/C=C/C(=O)Nc2ccc(Cn3nccn3)cc2)c1-c1ccc(F)cc1 [Example 196, (2E)-3-[5-(4-Fluorophenyl)-1-methyl-1H-pyrazol-4-yl]-N-[4-(2H-1,2,3-triazol-2-ylmethyl)phenyl]acrylamide] | 178 to 179
Cn1ncc(/C=C/C(=O)Nc2ccc(-n3cccn3)cc2)c1-c1ccc(F)cc1 [Example 197, (2E)-3-[5-(4-Fluorophenyl)-1-methyl-1H-pyrazol-4-yl]-N-[4-(1H-pyrazol-1-yl)phenyl]acrylamide] | 200 to 201
Cn1ncc(/C=C/C(=O)Nc2ccc(Cn3ncnn3)cc2)c1-c1ccc(F)cc1 [Example 198, (2E)-3-[5-(4-Fluorophenyl)-1-methyl-1H-pyrazol-4-yl]-N-[4-(2H-tetrazol-2-ylmethyl)phenyl]acrylamide] | 210 to 211
Cn1ncc(/C=C/C(=O)Nc2ccc(Cn3cnnn3)cc2)c1-c1ccc(F)cc1 [Example 199, (2E)-3 [5-(4-Fluorophenyl)-1-methyl-1H-pyrazol-4-yl]-N-[4-(1H-tetrazol-1-ylmethyl)phenyl]acrylamide] | 233 to 234
Cn1ncc(/C=C/C(=O)Nc2ccc(Cn3ccnc3CO)cc2)c1-c1ccc(F)cc1 [Example 200, (2E)-3-[5-(4-Fluorophenyl)-1-methyl-1H-pyrazol-4-yl]-N-(4-{[2-(hydroxymethyl)-1H-imidazol-1-yl]methyl}phenyl)acrylamide] | 229 to 230
Cc1cncn1Cc1ccc(NC(=O)/C=C/c2cnn(C)c2-c2ccc(F)cc2)cc1 [Example 201, (2E)-3-[5-(4-Fluorophenyl)-1-methyl-1H-pyrazol-4-yl]-N-{4-[(5-methyl-1H-imidazol-1-yl)methyl]phenyl}acrylamide] | 260 to 261
Cc1cn(Cc2ccc(NC(=O)/C=C/c3cnn(C)c3-c3ccc(F)cc3)cc2)cn1 [Example 202, (2E)-3-[5-(4-Fluorophenyl)-1-methyl-1H-pyrazol-4-yl]-N-{4-[(4-methyl-1H-imidazol-1-yl)methyl]phenyl}acrylamide] | 202 to 203
CSc1ccc(NC(=O)/C=C/c2cnn(C)c2-c2ccc(F)cc2)cc1 [Example 204, (2E)-3-[5-(4-Fluorophenyl)-1-methyl-1H-pyrazol-4-yl]-N-[4-(methylthio)phenyl]acrylamide] | 164 to 165
Cn1ncc(/C=C/C(=O)Nc2ccc(C(=O)c3ccccc3)cc2)c1-c1ccc(F)cc1 [Example 205, (2E)-N-(4-Benzoylphenyl)-3-[5-(4-fluorophenyl)-1-methyl-1H-pyrazol-4-yl]acrylamide] | 110 to 112
Cn1ncc(/C=C/C(=O)Nc2ccc(S(=O)(=O)c3ccccc3)cc2)c1-c1ccc(F)cc1 [Example 206, (2E)-3-[5-(4-Fluorophenyl)-1-methyl-1H-pyrazol-4-yl]-N-[4-(phenylsulfonyl)phenyl]acrylamide] | 169 to 172
CSCc1ccc(NC(=O)/C=C/c2cnn(C)c2-c2ccc(SC)cc2)cc1 [Example 207, (2E)-3-{1-methyl-5-[4-(methylthio)phenyl]-1H-pyrazol-4-yl}-N-{4-[(methylthio)methyl]phenyl}acrylamide] | 145 to 146
CSCc1ccc(NC(=O)/C=C/c2cnn(C)c2-c2ccc(F)cc2)cc1 [Example 208, (2E)-3-[5-(4-fluorophenyl)-1-methyl-1H-pyrazol-4-yl]-N-{4-[(methylthio)methyl]phenyl}acrylamide] | 165 to 168
COCc1ccc(NC(=O)/C=C/c2cnn(C)c2-c2ccc(F)cc2)cc1 [Example 209, (2E)-3-[5-(4-Fluorophenyl)-1-methyl-1H-pyrazol-4-yl]-N-[4-(methoxymethyl)phenyl]acrylamide] | 170 to 171
CCSCc1ccc(NC(=O)/C=C/c2cnn(C)c2-c2ccc(F)cc2)cc1 [Example 210, (2E)-N-{4-[(Ethylthio)methyl]phenyl}-3-[5-(4-fluorophenyl)-1-methyl-1H-pyrazol-4-yl]acrylamide] | 157 to 158

Structure (SMILES) | melting point [°C]
Cn1ncc(/C=C/C(=O)Nc2ccc(CSC(C)(C)C)cc2)c1-c1ccc(F)cc1 [Example 211, (2E)-N-{4-[(tert-Butylthio)methyl]phenyl}-3-[5-(4-fluorophenyl)-1-methyl-1H-pyrazol-4-yl]acrylamide] | 166 to 168
Cn1ncc(/C=C/C(=O)Nc2ccc(CSc3ccccc3)cc2)c1-c1ccc(F)cc1 [Example 212, (2E)-3-[5-(4-Fluorophenyl)-1-methyl-1H-pyrazol-4-yl]-N-{4-[(phenylthio)methyl]phenyl}acrylamide] | 197 to 198
Cn1ncc(/C=C/C(=O)Nc2ccc(CSc3c[nH]nn3)cc2)c1-c1ccc(F)cc1 [Example 213, (2E)-3-[5-(4-Fluorophenyl)-1-methyl-1H-pyrazol-4-yl]-N-(4-[(1H-1,2,3-triazol-4-ylthio)methyl)phenyl]acrylamide] | 182 to 183
Cn1nnnc1SCc1ccc(NC(=O)/C=C/c2cnn(C)c2-c2ccc(F)cc2)cc1 [Example 214, (2E)-3-[5-(4-Fluorophenyl)-1-methyl-1H-pyrazol-4-yl]-N-(4-[[(1-methyl-1H-tetrazol-5-yl)thio]methyl]phenyl)acrylamide] | 150 to 152
Cn1ncc(/C=C/C(=O)Nc2ccc(C[S+](C)[O-])cc2)c1-c1ccc(F)cc1 (stereo not shown) [Example 215, (2E)-3-(5-(4-fluorophenyl)-1-methyl-1H-pyrazol-4-yl)-N-(4-((methylsulfinyl)methyl)phenyl)acrylamide] | 240 to 241
CC[S+]([O-])Cc1ccc(NC(=O)/C=C/c2cnn(C)c2-c2ccc(F)cc2)cc1 (stereo not shown) [Example 216, (2E)-N-{4-[(Ethylsulfinyl)methyl]phenyl}-3-[5-(4-fluorophenyl)-1-methyl-1H-pyrazol-4-yl]acrylamide] | 228 to 229
Cn1ncc(/C=C/C(=O)Nc2ccc([S+](C)[O-])cc2)c1-c1ccc(F)cc1 (stereo not shown) [Example 217, (2E)-3-[5-(4-Fluorophenyl)-1-methyl-1H-pyrazol-4-yl]-N-[4-(methylsulfinyl)phenyl]acrylamide] | 260 to 261
Cn1ncc(/C=C/C(=O)Nc2ccc(C[S+]([O-])C(C)(C)C)cc2)c1-c1ccc(F)cc1 (stereo not shown) [Example 218, (2E)-N-{4-[(tert-Butylsulfinyl)methyl]phenyl}-3-[5-(4-fluorophenyl)-1-methyl-1H-pyrazol-4-yl]acrylamide] | 242 to 243
Cn1ncc(/C=C/C(=O)Nc2ccc(C[S+]([O-])c3ccccc3)cc2)c1-c1ccc(F)cc1 (stereo not shown) [Example 219, (2E)-3-[5-(4-Fluorophenyl)-1-methyl-1H-pyrazol-4-yl]-N-{4-[(phenylsulfinyl)methyl]phenyl}acrylamide] | 236 to 237
Cn1nnnc1[S+]([O-])Cc1ccc(NC(=O)/C=C/c2cnn(C)c2-c2ccc(F)cc2)cc1 (stereo not shown) [Example 220, (2E)-3-[5-(4-Fluorophenyl)-1-methyl-1H-pyrazol-4-yl]-N-(4-{[(1-methyl-1H-tetrazol-5-yl)sulfinyl]methyl}phenyl)acrylamide] | 179 to 183
Cn1ncc(/C=C/C(=O)Nc2ccc(CS(=O)(=O)C(C)(C)C)cc2)c1-c1ccc(F)cc1 [Example 224, (2E)-N-{4-[(tert-Butylsulfonyl)methyl]phenyl}-3-[5-(4-fluorophenyl)-1-methyl-1H-pyrazol-4-yl]acrylamide] | 260 to 261
Cn1ncc(/C=C/C(=O)Nc2ccc(CS(=O)(=O)c3ccccc3)cc2)c1-c1ccc(F)cc1 [Example 225, (2E)-3-[5-(4-Fluorophenyl)-1-methyl-1H-pyrazol-4-yl]-N-{4-[(phenylsulfonyl)methyl]phenyl}acrylamide] | 223 to 224
Cn1nnnc1S(=O)(=O)Cc1ccc(NC(=O)/C=C/c2cnn(C)c2-c2ccc(F)cc2)cc1 [Example 226, (2E)-3-(5-(4-Fluorophenyl)-1-methyl-1H-pyrazol-4-yl]-N-(4-{[(1-methyl-1H-tetrazol-5-yl)sulfonyl]methyl}phenyl)acrylamide] | 224 to 225
Cn1ncc(/C=C/C(=O)Nc2ccc(CS(=O)(=O)c3c[nH]nn3)cc2)c1-c1ccc(F)cc1 [Example 227, (2E)-3-[5-(4-Fluorophenyl)-1-methyl-1H-pyrazol-4-yl]-N-{4-[(1H-1,2,3-triazol-4-ylsulfonyl)methyl]phenyl}acrylamide] | 204 to 206
Cn1ncc(/C=C/C(=O)Nc2ccc(C(=O)O)cc2)c1-c1ccc(F)cc1 [Example 234, 4-({(2E)-3-[5-(4-fluorophenyl)-1-methyl-1H-pyrazol-4-yl]prop-2-enoyl}amino)benzoic acid] | 291 to 292
